What was measured:
OV15398 xenograft = assay: Ovarian PDX OV15398, tumor volume; format: in vivo, mouse; settings: OV15398 (very low CDKN2A); 40 or 30 mg/kg i.v. BIW
Method: (§1) Patient-derived xenograft (PDX) models from ovarian carcinoma patients (OV5387, OV14702, OV14972, OV15398, OV15576, OV15696, OV15612, OV15631) were established in NOD-SCID mice at Crown Bioscience (San Diego, USA). Cryo vials containing tumor cells were thawed and prepared for injection into mice. Cells were washed in PBS, counted, and resuspended in cold PBS at a concentration of 50,000-100,000 viable cells/100 ul. Cell suspensions were mixed with an equal volume of Cultrex ECM and kept on ice during transport to the vivarium. Cells were prepared for injections by withdrawing ECM-Cell mixture into a chilled slip-tip syringe fitted with a 26G 7/8 (0.5 mm×22 mm) needle. The filled syringes were kept on ice to avoid the solidification of ECM. Each mouse was inoculated subcutaneously in the right flank with 200 uL of the cell suspension. Tumor sizes were measured in two dimensions using a caliper, and the volumes were expressed in mm3 using the formula: V=0.5 a×b^2 where a and b are the longest and shortest diameters of the tumor, respectively. Compound 1 treatment was started when the average tumor size reached 150-200 mm^3.
(§2) Compound 1 was formulated in w/v 20% Captisol (pH 4-6) and administered by i.v. twice weekly (BIW) at a final dose of 40 mg/kg or 30 mg/kg in a 10 ml/kg volume. Tumor volumes were measured twice weekly over the course of the study. […]

[1] = tested on: MCL1 protein in HCC70 xenograft tumor; assay: HCC70 xenograft tumor, Western blot; format: in vivo; settings: HCC70 xenograft mouse; single dose of 40 mg/kg
Method: Cytotoxic cancer cell lines HCC70 and TOV21G, and cytostatic cancer cell lines T47D and COV318 were seeded in wells of a six-well dish at a density of 1×10^6 cells/well and allowed to adhere overnight. Cells were then treated with 50 nM of Compound 1 for 16 or 24 hours, or with DMSO (0 hours) representing a negative control. Cells were harvested and placed on ice, and resuspended in RIPA lysis buffer supplemented with protease and phosphatase inhibitors. Clarified lysates prepared with 4×LSD running buffer and boiled at 95° C. for 5 minutes. Equivalent amounts of sample (10 μg total protein) were run on a 4-12% Bis-Tris gel and transferred to a PDVF membrane for Western blotting using standard Western blotting protocols. Membranes were blocked with Licor TBS blocking buffer then probed with antibodies for BCL-XL, BCL-2, MCL1, BID, and GAPDH visualized using and Odyssey imager (FIGS. 23A and 23D).
Subcutaneous HCC70 xenografts were established in BALC/c nude mice at ChemPartner (Shanghai, China). Each mouse was inoculated subcutaneously in the right flank with 5×10^6 HCC70 cells (ATCC, CAT #: CRL-2315) in 0.2 ml of a 1:1 mixture of base medium and Matrigel. Tumor sizes were measured in two dimensions using a caliper, and the volumes were expressed in mm^3 using the formula: V=0.5 a×b^2 where a and b are the longest and shortest diameters of the tumor, respectively. […]

BR5023 xenografts = assay: TNBC patient-derived xenograft BR5023, tumor volume; format: in vivo, mouse; settings: 40 mg/kg or 30 mg/kg i.v. BIW
Method: as §1, with “TNBC” for “ovarian carcinoma”, “(BR5010, BR5013, BR5015, and BR5023)” for “(OV5387, OV14702, OV14972, OV15398, OV15576, OV15696, OV15612, OV15631)”, “mm^3” for “mm3”, “a×b^2,” for “a×b^2”
as §2

MDA-MB-468 cells = assay: Growth rate (GR) inhibition, Cell Titer Glo 2.0, MDA-MB-468; format: cell-based, human; settings: concentrations greater than 100 nM, 72 hours
Method: To determine the effect of Compound 1 on the growth of TNBC cancer cells, four different human TNBC cell lines were used—HCC70, MDA-MB-468, MDA-MB-453 and CAL120. Cells from each cell line were plated separately at 50,000 cells/mL (100 uL per well) in a black-walled 96 well plate and allowed to adhere overnight. In parallel, cells were plated in a separate day 0 plate to measure the number of cells present upon compound addition. The next day, Compound 1 was added to the wells with an HP 300e compound dispenser in a 10-point serial dilution and cells incubated for 72 hours. On the same day Cell Titer Glo 2.0 reagent was added to the day 0 plate, and the luminescence measured with an Envision plate reader per manufacture protocol. After 72 hours Cell Titer Glo 2.0 reagent was added to the plates and the luminescence measured. GR curves were calculated as follows: […]
wherein x(c) is the Compound 1 treatment luminescence); x0 is the average Day 0 luminescence); and xctrl is the average DMSO treatment luminescence, and graphed using Graph Pad Prism. A GR value of 1 indicates no growth inhibition; GR values between 0 and 1 indicate partial growth inhibition; a GR value of 0 indicates cytostasis (no change from baseline); GR values less than 0 indicate cytotoxicity (cell number less than baseline); a GR value of −1 indicates complete cell loss.

AML xenografts = settings: previously shown; cited from earlier work
HCC70 xenografts = assay: Subcutaneous HCC70 xenograft, tumor volume; format: in vivo, mouse; settings: 40 mg/kg i.v. twice weekly (BIW), vehicle: increase in tumor volume
Method: Subcutaneous HCC70 xenografts were established in BALC/c nude mice at ChemPartner (Shanghai, China). Each mouse was inoculated subcutaneously in the right flank with 5×10^6 HCC70 cells (ATCC, CAT #: CRL-2315) in 0.2 ml of a 1:1 mixture of base medium and Matrigel. Tumor sizes were measured in two dimensions using a caliper, and the volumes were expressed in mm^3 using the formula: V=0.5 a×b^2 where a and b are the longest and shortest diameters of the tumor, respectively. Compound 1 treatment was started when the average tumor size reached 181 mm^3.
Compound 1 was formulated in w/v 20% Captisol (pH 4-6) and administered by i.v. twice weekly (BIW) at a final dose of 40 mg/kg in a 10 ml/kg volume. Mice in the vehicle arm were given the same dosing schedules, volumes, and formulations, but lacking Compound 1. Tumor volumes were measured twice weekly over the course of the study.

CN(C)C/C=C/C(=O)Nc1ccc(C(=O)N[C@@]2(C)CCC[C@@H](Nc3ncc(Cl)c(-c4c[nH]c5ccccc45)n3)C2)nc1 [Compound 1, N-((1S,3R)-3-(5-chloro-4-(1H-indol-3-yl)pyrimidin-2-ylamino)-1-methylcyclohexyl)-5-((E)-4-(dimethylamino)but-2-enamido)picolinamide]
Response to treatment (tumor growth) (OV15398 xenograft): responded
MCL1 protein expression in tumor (Western blot) [1]: reduced MCL1 protein expression
Tumor growth vs untreated historical samples (BR5023 xenografts): little inhibitory effect on tumor growth
Inhibition of growth (GR curve) (MDA-MB-468 cells): almost complete inhibition of growth
Anti-tumor activity (AML xenografts): anti-tumor activity
Tumor volume (HCC70 xenografts): reduction in tumor volume

— patent publication US20200113902A1, “COMPOSITIONS AND METHODS FOR TREATING CANCERS WITH COVALENT INHIBITORS OF CYCLIN-DEPENDENT KINASE 7 (CDK7)” (Syros Pharmaceuticals, Inc., priority 2017, published 2020)
